Like-named read-outs stand apart in the source and are kept apart here.
Assays:
[1] = tested on: MV4:11 cells (leukemia, AML); assay: MTT in vitro cell proliferation / combination assay, MV4:11; format: cell-based; details: for EC50: Homo sapiens, MV4:11, example compound alone
Protocol: (§1) A combination index score is calculated by the Chou and Talalay method (CalcuSyn software, Biosoft). The strength of synergy is scored using the ranking system Chou and Talalay: CI less than 0.8 indicates synergy, CI between 0.8 and 1.2 indicates additivity and CI greater than 1.2 indicates antagonism.
(§2) The EC50 values of representative combinations were also calculated. The individually measured EC50 values of the chemotherapeutic agent and the example compounds are compared to the EC50 value of the combination. The cell lines are characterised by tumor type. […]

[2] = tested on: Mantle cell lymphoma cells; assay: MTT in vitro cell proliferation / combination assay, mantle cell lymphoma (cell line not given); format: cell-based; details: Mantle cell lymphoma (cell line cell empty)
Protocol: (§3) Proliferation assays (MTT) were performed as described in: • “Chemical interrogation of FOXO3a nuclear translocation identifies potent and selective inhibitors of phosphoinositide 3-kinases”, W. Link, J. Oyarzabal, B. G. Serelde, M. I. Albarran, O. Rabal, A. Cebria, P. Alfonso, J. Fominaya, O. Renner, S. Peregrina, D. Soilan, P. A. Ceballos, A. I. Hernandez, M. Lorenzo, P. Pevarello, T. G. Granda, G. Kurz, A. Carnero, J. R. Bischoff, J. Biol. Chem. 284 (2009) 28392-28400. Combination Assay
as §1
(§4) The EC50 values of representative combinations were also calculated. The individually measured EC50 values of the chemotherapeutic agent and the example compounds are compared to the EC50 value of the combination. The cell lines are characterised by tumor type.
(§5) Combination assays were performed as described in: • “Pim 1 kinase inhibitor ETP-45299 suppresses cellular proliferation and synergizes with PI3K inhibition”. Blanco-Aparicio, Carmen; Collazo, Ana Maria Garcia; Oyarzabal, Julen; Leal, Juan F.; Albaran, Maria Isabel; Lima, Francisco Ramos; Pequeno, Belen; Ajenjo, Nuria; Becerra, Mercedes; Alfonso, Patricia; Reymundo, Maria Isabel; Palacios, Irene; Mateos, Genoveva; Quinones, Helena; Corrionero, Ana; Carnero, Amancio; Pevarello, Paolo; Lopez, Ana Rodriguez; Fominaya, Jesus; Pastor, Joaquin; Bischoff, James R. Cancer Letters (Shannon, Ireland) 2011, 300(2), 145-153.

[3] = target: PIM-1 (Homo sapiens (Human), UniProt P11309); assay: PIM-1 biochemical assay (ADP Hunter); details: read-out: PIM1 IC50; semi-quantitative
Sequence of PIM-1 (P11309 whole entry): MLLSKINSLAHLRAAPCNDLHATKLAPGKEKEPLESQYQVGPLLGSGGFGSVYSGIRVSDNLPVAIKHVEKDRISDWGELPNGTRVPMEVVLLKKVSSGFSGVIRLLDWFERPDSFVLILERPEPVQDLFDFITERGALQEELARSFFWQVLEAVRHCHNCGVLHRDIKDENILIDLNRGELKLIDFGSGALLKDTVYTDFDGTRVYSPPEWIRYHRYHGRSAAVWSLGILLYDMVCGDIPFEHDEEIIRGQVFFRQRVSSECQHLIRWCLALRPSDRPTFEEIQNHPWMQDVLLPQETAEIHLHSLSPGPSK

[4] = tested on: Jeko-1 cells (Mantle cell lymphoma); assay: MTT in vitro cell proliferation / combination assay, Jeko-1; format: cell-based; details: for EC50: Homo sapiens
Protocol: as §1, §4
(§6) Blanco-Aparicio, Carmen; Collazo, Ana Maria Garcia; Oyarzabal, Julen; Leal, Juan F.; Albaran, Maria Isabel; Lima, Francisco Ramos; Pequeno, Belen; Ajenjo, Nuria; Becerra, Mercedes; Alfonso, Patricia; Reymundo, Maria Isabel; Palacios, Irene; Mateos, Genoveva; Quinones, Helena; Corrionero, Ana; Carnero, Amancio; Pevarello, Paolo; Lopez, Ana Rodriguez; Fominaya, Jesus; Pastor, Joaquin; Bischoff, James R. Cancer Letters (Shannon, Ireland) 2011, 300(2), 145-153.

[5] = tested on: DU145 cells (prostate); assay: MTT in vitro cell proliferation / combination assay, DU145; format: cell-based; details: for EC50: Homo sapiens, DU-145
Protocol: as §3, §1, §4, §5

[6] = tested on: SKMel19 cells (melanoma); assay: MTT in vitro cell proliferation / combination assay, SKMel19; format: cell-based
Protocol: as §1, §2

[7] = tested on: MiaPaca-2 cells (pancreas); assay: MTT in vitro cell proliferation / combination assay, MiaPaca-2; format: cell-based; details: for EC50: Homo sapiens, MIA PaCa-2
Protocol: as §3, §1, §4, §5

[8] = tested on: HTC116 cells (colon carcinoma); assay: MTT in vitro cell proliferation / combination assay, HTC116; format: cell-based
Protocol: as §1, §4

[9] = tested on: NCI H1975 cells (non small cell lung carcinoma); assay: MTT in vitro cell proliferation / combination assay, NCI H1975; format: cell-based
Protocol: as §1, §4, §6

[10] = tested on: A549 cells (lung adenocarcinoma); assay: MTT in vitro cell proliferation / combination assay, A549; format: cell-based
Protocol: as §1, §4, §6

[11] = MV4:11, combination with GDC-0941
[12] = Jeko-1, combination with GDC-0941
[13] = Jeko-1, combination with lapatinib
[14] = MV4:11, combination with lapatinib
[15] = DU145, combination with Taxotere
[16] = Homo sapiens, SK-MEL19, SKMel19, example compound alone
[17] = SKMel19, combination with GDC-0879
[18] = SKMel19, combination with GDC-0941
[19] = MiaPaca-2, combination with lapatinib
[20] = HTC116, combination with PD-0325901
[21] = HTC116, combination with lapatinib
[22] = NCI H1975, combination with GDC-0941
[23] = A549, combination with GDC-0941
[24] = MV4:11, combination with GDC-0879
[25] = MV4:11, combination with PD-0332991
[26] = SKMel19, combination with PD-0332991
[27] = HTC116, chemotherapeutic alone, read-out: Chemoth EC50

For `CN1CCC(CNc2nn3c(-c4cccc(OC(F)(F)F)c4)nnc3c3c2N(C)CCO3)CC1` [Example 16, (1-Methyl-piperidin-4-ylmethyl)-[6-methyl-3-(3-trifluoromethoxy-phenyl)-7,8-dihydro-6H-9-oxa-1,2,3a,4,6-pentaaza-cyclopenta[a]naphthalen-5-yl]-amine], the EC50 [1] was 5 µM, the “Combination Index (CI)” value [1, 11] was 0.585 and the Synergy [1, 11] was “++ (0.3<C1<0.7)”. The “Combination Index (CI)” value ([2]; combination with lapatinib) was 0.289, the Synergy ([2]; combination with lapatinib) was “+++ (0.1<CI<0.3)” and the EC50 ([2]; example compound alone, read-out: Example EC50) was 10 µM. For the same compound, the IC50 [3] was under 0.1 µM.
`CN1CCOc2c1c(N1CCC3(CC1)CC(N)C3)nn1c(-c3cccc(OC(F)(F)F)c3)nnc21` [Example 48, 7-[6-Methyl-3-(3-trifluoromethoxy-phenyl)-7,8-dihydro-6H-9-oxa-1,2,3a,4,6-pentaaza-cyclopenta[a]naphthalen-5-yl]-7-aza-spiro[3.5]non-2-ylamine] was tested, and the EC50 ([4]; Jeko-1, example compound alone, read-out: Example EC50) was 2.5 µM, the “Combination Index (CI)” value [4, 12] was 0.718 and the Synergy [4, 12] was “+ (0.7<C1<1.2)”. The “Combination Index (CI)” value [4, 13] was 0.244, the Synergy [4, 13] was “+++ (0.1<CI<0.3)” and the EC50 [1] was 1 µM. For the same compound, the “Combination Index (CI)” value [1, 11] was 0.3, the Synergy [1, 11] was “+++ (0.1<CI<0.3)” and the “Combination Index (CI)” value [1, 14] was 0.548. The Synergy [1, 14] was “++ (0.3<C1<0.7)”, the IC50 [3] was under 0.1 µM and the “Combination Index (CI)” value [5, 15] was 0.704. The Synergy [5, 15] was “+ (0.7<C1<1.2)”, the EC50 ([5]; DU145, example compound alone, read-out: Example EC50) was 15 µM and the EC50 [6, 16] was 3 µM. The “Combination Index (CI)” value [6, 17] was 0.319, the Synergy [6, 17] was “++ (0.3<C1<0.7)” and the “Combination Index (CI)” value [6, 18] was 0.571. For the same compound, the Synergy [6, 18] was “++ (0.3<C1<0.7)”, the EC50 ([6]; SKMel19, example compound alone) was 4 µM and the EC50 ([7]; MiaPaca-2, example compound alone, read-out: Example EC50) was 5 µM. For the same compound, the “Combination Index (CI)” value [7, 19] was 0.57, the Synergy [7, 19] was “++ (0.3<C1<0.7)” and the “Combination Index (CI)” value [8, 20] was 0.759. The Synergy [8, 20] was “+ (0.7<C1<1.2)”, the “Combination Index (CI)” value [8, 21] was 0.608 and the Synergy [8, 21] was “++ (0.3<C1<0.7)”. For the same compound, the EC50 ([8]; HTC116, example compound alone, read-out: Example EC50) was 10 µM, the EC50 ([9]; Homo sapiens, NCI H1975, example compound alone) was 5 µM and the “Combination Index (CI)” value [9, 22] was 0.038. The Synergy [9, 22] was “++++ (CI<0.1)”, the “Combination Index (CI)” value [10, 23] was 0.12 and the Synergy [10, 23] was “+++ (0.1<CI<0.3)”. The EC50 ([10]; Homo sapiens, A549, example compound alone) was 6 µM.
For `CN1CCOc2c1c(NCC1CCNCC1)nn1c(-c3cccc(OC(F)(F)F)c3)nnc21` [Example 56, [6-Methyl-3-(3-trifluoromethoxy-phenyl)-7,8-dihydro-6H-9-oxa-1,2,3a,4,6-pentaaza-cyclopenta[a]naphthalen-5-yl]-piperidin-4-ylmethyl-amine], the EC50 [1] was 0.5 µM, the “Combination Index (CI)” value [1, 24] was 0.604 and the Synergy [1, 24] was “++ (0.3<C1<0.7)”. The “Combination Index (CI)” value [1, 11] was 0.024, the Synergy [1, 11] was “++++ (CI<0.1)” and the “Combination Index (CI)” value [1, 25] was 0.309. For the same compound, the Synergy [1, 25] was “++ (0.3<C1<0.7)”, the IC50 [3] was under 0.1 µM and the EC50 [6, 16] was 6 µM. For the same compound, the “Combination Index (CI)” value [6, 17] was 0.516, the Synergy [6, 17] was “++ (0.3<C1<0.7)” and the “Combination Index (CI)” value [6, 26] was 0.568. The Synergy [6, 26] was “++ (0.3<C1<0.7)”.
`O=C(NOC[C@H](O)CO)c1ccc(F)c(F)c1Nc1ccc(I)cc1F` [PD-0325901, (R)—N-(2,3-dihydroxypropoxy)-3,4-difluoro-2-(2-fluoro-4-iodophenylamino)benz-amide, reference compound] was tested, and the EC50 [8, 27] was 1.25 µM.
In the case of `CC(=O)O[C@@]12CO[C@@H]1C[C@H](O)[C@@]1(C)C(=O)[C@H](O)C3=C(C)[C@@H](OC(=O)[C@H](O)[C@@H](NC(=O)OC(C)(C)C)c4ccccc4)C[C@](O)([C@@H](OC(=O)c4ccccc4)[C@H]21)C3(C)C` [Taxotere, (2R,3S)—N-carboxy-3-phenylisoserine, N-tert-butyl ester, 13-ester with 5,20-epoxy-1,2,4,7,10,13-hexahydroxytax-11-en-9-one 4-acetate 2-benzoate, trihydrate, reference compound], the EC50 ([5]; DU145, chemotherapeutic alone, read-out: Chemoth EC50) is reported as 0.025 µM.
Work on `CS(=O)(=O)CCNCc1ccc(-c2ccc3ncnc(Nc4ccc(OCc5cccc(F)c5)c(Cl)c4)c3c2)o1` [lapatinib, N-(3-chloro-4-(3-fluorobenzyloxy)phenyl)-6-(5-((2-(methylsulfonyl)ethylamino)-methyl)furan-2-yl)quinazolin-4-amine, reference compound] yielded an EC50 ([4]; Jeko-1, chemotherapeutic alone, read-out: Chemoth EC50) of 5 µM, an EC50 ([2]; chemotherapeutic alone, read-out: Chemoth EC50) of 5 µM and an EC50 ([7]; MiaPaca-2, chemotherapeutic alone, read-out: Chemoth EC50) of 20 µM. For the same compound, the EC50 [8, 27] was 10 µM.
